Data taken from paper PMC11402846, “Does a postmortem redistribution affect the concentrations of the 7 azaindole-derived synthetic cannabinoid 5F-MDMB-P7AICA in tissues and body fluids following pulmonary administration to pigs?” (Archives of Toxicology, 2024).

How the values were obtained:
[1] = death case, cited from earlier work; for central blood (CB) levels versus peripheral blood (PB) levels: PMI: 20 h, ref Zaitsu et al. ([2015])
[2] = design: method as in Walle et al. [2023]; settings: authentic fatal case, comparable survival time after drug intake; ref Walle et al. [2023]; cited from earlier work
[3] = Perimortem and postmortem concentrations in tissues and body fluids after pulmonary administration of 5F-MDMB-P7AICA to pigs (LC-MS/MS); type: in vivo; settings: pig
Procedure: The experiments were conducted in compliance with the German legislation on protection of animals and the National Institutes of Health Guide for the Care and Use of Laboratory Animals (permission number 32/2018). Six domestic male pigs (Swabian Hall strain; body weight [BW] 40–51.2 kg, 3 months old) were kept with free access to water and standard daily food (OlymPig fattening feed, Raiffeisen, Münster, Germany). One night prior to the experiments, the animals were kept fasting. […] The room temperature was 22 ± 1 °C with a humidity of 55 ± 10%.
As previously described (Doerr et al. [2020]; Schaefer et al. [2019], [2020a]), an ethanolic solution of 5 mg/mL 5F-MDMB-P7AICA was prepared. An aliquot of 1.600–2.048 mL was filled up with ethanol to a total volume of 2 mL, if needed to achieve a concentration of 200 µg per kg BW. The SC was administered inhalatively over 6.5–8 min, using a M-Neb flow + ventilation ultrasonic nebulizer MN-300/7 (Nebutec, Elsenfeld, Germany) in the inspiration-triggered mode.
Animal euthanasia was conducted eight hours after the drug administration using T 61 (embutramide, 0.12 mL/kg BW, Intervet Deutschland GmbH, Unterschleißheim, Germany). Afterwards, the abdominal cavity was opened. Samples of the following organs, tissues and body fluids were collected (PMI 0) and stored at − 20 °C until further analysis: Brain (cerebrum), lungs and liver with no differentiation between the lobes, kidneys, muscle tissue (from the hindleg), adipose tissue (subcutaneous (sc), dorsal, perirenal), bile fluid, duodenum content, urine (only at PMI 0) and PB (V. jugularis) as well as CB.
The abdominal cavity was sutured leaving the organs in situ and the animal bodies were kept at room temperature in a supine position. Analogously, samples were taken again after 24, 48 and 72 h (PMI 1–3), respectively. Yet, PM PB specimens were obtained by sampling the coagulated blood from the V. femoralis or V. brachialis. For this purpose, the whole vessel was sampled and the blood was drawn therefrom using a pipette with a wide lumen.
Specimens were prepared according to a previous published method (Schaefer et al. [2017], [2019], [2020a]) with changes regarding the applied buffers and the amount of acetonitrile. An amount of 2 g of solid tissue (brain, lung, liver, kidney and muscle tissue) was homogenized (1:5 w/w with water), respectively and 1 g of body fluids (bile fluid, duodenum content, and urine) was diluted (1:10 w/w for bile and duodenum content, 1:5 w/w for urine, respectively, with water). The samples were stored at − 20 °C.
To determine the standard addition calibration curves, four 0.5 g aliquots were added to 20 µL of an ethanolic stable-isotope-labeled internal standard solution (SIL-IS, 1 ng/20 µL AB-FUBINACA-d4) and 25 µL of ethanol or an ethanolic solution of the analytes.
Subsequently, the solution was mixed with 500 µL of acetate buffer and 50 µL of β-glucuronidase/arylsulfatase and incubated for 2 h at 60 °C to induce enzymatic hydrolysis of the glucuronidated DBA (phase-II metabolite).
For the following protein precipitation, the samples were mixed with 500 µL of acetonitrile and centrifuged at 3500g for 8 min. The supernatants were transferred to 1 mL phosphate buffer (pH 9) vortexed and centrifuged at 3500g for 8 min again.
Solid phase extraction (SPE) was carried out using Strata C18 end capped cartridges (Phenomenex, Aschaffenburg, Germany), previously conditioned with 2 × 3 mL methanol and 3 mL phosphate buffer. After loading the samples, the columns were washed with 3 mL phosphate buffer, 3 mL acetic acid (0.25 M) and 3 mL deionized water, respectively. 60 μL acetone was added and columns were dried for 5 min using negative pressure (about 33 kPa). Thereafter, the analytes were eluted with a mixture of 1.5 mL methanol-acetone (1:1, v/v) and the eluate was evaporated under a gentle stream of nitrogen at 60 °C. […]

[4] = 200 µg/kg BW inhalative, PMI 0 (8 h after administration)
[5] = 200 µg/kg BW inhalative, PMI 1 (24 h after euthanasia, room temperature)
[6] = 200 µg/kg BW inhalative, PMI 2 (48 h after euthanasia, room temperature)
[7] = 200 µg/kg BW inhalative, PMI 3 (72 h after euthanasia, room temperature)

CN1CCCCC1Cn1cc(C(=O)c2cccc3ccccc23)c2ccccc21 (stereo not drawn) [AM-1220]
central blood (CB) levels versus peripheral blood (PB) levels [1]: significantly exceeded

N#CCCCCn1cc(C(=O)c2cccc3ccccc23)c2ccccc21 [AM-2232]
central blood (CB) levels versus peripheral blood (PB) levels [1]: significantly exceeded

COC(=O)[C@@H](NC(=O)c1cn(CC2CCCCC2)c2ccccc12)C(C)(C)C [MDMB-CHMICA]
quotient of central/peripheral blood (C/P ratio) ([1]; 12 h after death, ref Gaunitz et al. [2018]): ~1

Cc1ccc(C(=O)c2cn(CCCCCF)c3ccccc23)c2ccccc12 [MAM-2201]
central blood (CB) levels versus peripheral blood (PB) levels [1]: significantly exceeded

CC(C)(C)C(NC(=O)c1cn(CCCCCF)c2ncccc12)C(=O)O (stereo not drawn) [DBA, 5F-MDMB-P7AICA-dimethylbutanoic acid]
CB concentration in fatal case [2]: 46 ng/mL
PB concentration in fatal case [2]: 5.7 ng/mL
Mean concentration ± SD in CB (central blood) [3, 4]: 0.22 ± 0.11 n = 6 ng/mL
Mean concentration ± SD in bile fluid [3, 4]: 57 ± 100 n = 6 ng/g
Mean concentration ± SD in brain [3, 4]: tested negative and neg
Mean concentration ± SD in dorsal fat [3, 4]: 0.60 ± 0.35 n = 6 ng/g
Mean concentration ± SD in duodenum content [3, 4]: 82 ± 72 n = 6 ng/g
Mean concentration ± SD in kidney [3, 4]: 5.4 ± 4.7 n = 6 ng/g
Mean concentration ± SD in liver [3, 4]: 0.87 ± 0.37 n = 6 ng/g
Mean concentration ± SD in lung [3, 4]: 0.20 ± 0.071 n = 4 ng/g
Mean concentration ± SD in muscle [3, 4]: 0.14 ± 0.011 n = 3 ng/g
Mean concentration ± SD in perirenal fat [3, 4]: 8.8 ± 5.6 n = 6 ng/g
Mean concentration ± SD in s.c. fat [3, 4]: 1.1 ± 1.1 n = 6 ng/g
Mean concentration ± SD in urine [3, 4]: 78 ± 45 n = 6 ng/g
Mean concentration ± SD in CB (central blood) [3, 5]: 0.32 ± 0.40 n = 5 ng/mL
Mean concentration ± SD in PB (peripheral blood) [3, 5]: 0.47 ± 0.21 n = 6 ng/mL
Mean concentration ± SD in bile fluid [3, 5]: 37 ± 71 n = 6 ng/g
Mean concentration ± SD in brain [3, 5]: 0.13 ± 0.056 n = 6 ng/g
Mean concentration ± SD in dorsal fat [3, 5]: 0.28 ± 0.19 n = 6 ng/g
Mean concentration ± SD in duodenum content [3, 5]: 13 ± 15 n = 6 ng/g
Mean concentration ± SD in kidney [3, 5]: 5.1 ± 5.0 n = 6 ng/g
Mean concentration ± SD in liver [3, 5]: 1.2 ± 1.4 n = 6 ng/g
Mean concentration ± SD in lung [3, 5]: 0.33 ± 0.21 n = 5 ng/g
Mean concentration ± SD in muscle [3, 5]: 0.10 ± 0.027 n = 6 ng/g
Mean concentration ± SD in perirenal fat [3, 5]: 1.0 ± 1.2 n = 5 ng/g
Mean concentration ± SD in s.c. fat [3, 5]: 0.45 ± 0.46 n = 5 ng/g
Mean concentration ± SD in CB (central blood) [3, 6]: 0.21 ± 0.17 n = 5 ng/mL
Mean concentration ± SD in PB (peripheral blood) [3, 6]: 0.48 ± 0.16 n = 6 ng/mL
Mean concentration ± SD in brain [3, 6]: 0.18 ± 0.065 n = 6 ng/g
Mean concentration ± SD in dorsal fat [3, 6]: 0.16 ± 0.064 n = 4 ng/g
Mean concentration ± SD in kidney [3, 6]: 7.0 ± 5.9 n = 6 ng/g
Mean concentration ± SD in liver [3, 6]: 1.8 ± 1.2 n = 6 ng/g
Mean concentration ± SD in lung [3, 6]: 0.92 ± 0.69 n = 6 ng/g
Mean concentration ± SD in muscle [3, 6]: 0.11 ± 0.047 n = 5 ng/g
Mean concentration ± SD in perirenal fat [3, 6]: 2.0 ± 1.7 n = 6 ng/g
Mean concentration ± SD in s.c. fat [3, 6]: 0.18 ± 0.086 n = 5 ng/g
Mean concentration ± SD in CB (central blood) [3, 7]: 0.20 ± 0.10 n = 5 ng/mL
Mean concentration ± SD in PB (peripheral blood) [3, 7]: 0.28 ± 0.093 n = 6 ng/mL
Mean concentration ± SD in brain [3, 7]: 0.16 ± 0.043 n = 6 ng/g
Mean concentration ± SD in dorsal fat [3, 7]: 0.11 ± 0.033 n = 5 ng/g
Mean concentration ± SD in duodenum content [3, 7]: 9.0 ± 17 n = 6 ng/g
Mean concentration ± SD in kidney [3, 7]: 6.5 ± 5.9 n = 6 ng/g
Mean concentration ± SD in liver [3, 7]: 2.8 ± 1.9 n = 6 ng/g
Mean concentration ± SD in lung [3, 7]: 0.89 ± 0.57 n = 5 ng/g
Mean concentration ± SD in muscle [3, 7]: 0.17 ± 0.089 n = 6 ng/g
Mean concentration ± SD in perirenal fat [3, 7]: 4.6 ± 3.7 n = 6 ng/g
Mean concentration ± SD in s.c. fat [3, 7]: 0.27 ± 0.17 n = 5 ng/g
Concentration in bile fluid ([3]; 200 µg/kg BW inhalative, PMI 3 (72 h after euthanasia, room temperature), only sampled from 2 pigs): 7.5–120 n = 2^2 ng/g
Mean concentration ± SD in PB (peripheral blood) ([3]; 5F-MDMB-P7AICA 200 µg/kg BW inhalative, PMI 0 (8 h after administration)): 0.18 ± 0.11 n = 6 ng/mL
Postmortem redistribution (PMR) ([3]; 3 days storage at room temperature): no relevant PMR was observed
Amount in the remaining tissues ([3]; PMI 0, tissues other than urine, bile fluid, duodenum content, kidney, perirenal fat): less than 1 ng/g
Concentration change in bile and duodenum ([3]; PMI 2 compared to PMI 0, p < 0.05): decrease was statistically significant
Concentration change in dorsal and subcutaneous fat specimens ([3]; over the PMI): significant lower concentrations over time
